In PubChem BioAssay AID540271 (Broad Institute, 2011):
Where “and” joins values, the source holds several entries; their conditions need not be identical. Equal values may be shown once. Calls of active or inactive are those of the source. The rule behind the calls is not given here.

The compounds below were run on S. cerevisiae expressing PfHSP40, growth rescue, plate reader (assay: S cerevisiae expressing PfHSP40, growth rescue, cherry pick dose confirmatory, plate reader (AID 540271);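 note: yeast growth read after three days of incubation at 30 °C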).

SMILES | AC50
O=C(NOC(=O)c1ccccc1)c1ccccc1 | 2.11 µM
Oc1c(Br)cc(-c2ccccc2)cc1Br | 4.93 µM
O=C1c2ccccc2NC(c2ccc(-c3cccc([N+](=O)[O-])c3)o2)N1O (stereo unspecified) | 4.69 µM
O=C1/C(=C/c2cccs2)SC(=S)N1NS(=O)(=O)c1ccccc1 | 3.9 µM
CCCOc1ccc(C(=O)NNC(=S)NC(=O)CC)cc1 | 6.95 µM
COc1cc(NS(=O)(=O)c2ccc(C)cc2)c2ncccc2c1 | 5.4 µM
OCCN(CCO)c1cc2c3ccccc3ccc2c2ccccc12 | 5.56 µM
FC(F)(F)c1nc(SCc2ccc(Cl)cc2Cl)n[nH]1 | 6.21 µM
O=C(COC(=O)c1ccc([N+](=O)[O-])o1)NC12CC3CC(CC(C3)C1)C2 | > 12 µM (inactive)
CC1=CC(C)(C)N(S(=O)(=O)c2ccc(C)cc2)c2ccc(C)cc21 | 7.54 µM
CC(C)N1CCN(c2ccc(OCC3COC(Cn4cncn4)(c4ccc(Cl)cc4Cl)O3)cc2)CC1 (stereo unspecified) | 2.01 µM
CCCC1CCC(c2ccc(/C(N)=N/O)cc2)CC1 (stereo unspecified) | > 12 µM (inactive)
CCCCCCSc1ccc(-c2nc3ccccn3c2NCCCC)cc1 | 6.05 µM
C(=N\Nc1nncc2ccccc12)/c1ccccn1 | 4.74 µM
Cc1nnc(N/N=C/c2cccc(OCc3ccc(Cl)c(Cl)c3)c2)n1N | > 12 µM (inactive)
Cc1cc(F)ccc1S(=O)(=O)N(C(=O)c1ccncc1)c1ccc(OC(=O)c2ccncc2)cc1 | 6.3 µM
COc1cccc(/C=N/Nc2ncnc3scc(-c4ccccc4)c23)c1O | 1.7 µM
Cc1ccccc1CN(C)CCS(=O)(=O)c1cc(Cl)ccc1Cl | > 12 µM (inactive)
COc1ccc2c(c1)OC[C@H]1[C@H]2N2C(=O)c3cc(Cl)ccc3NC(=O)[C@@]2(C)[C@H]1c1ccccc1 | 4.63 µM
CCCCCCCN1N=C(C)C(C(=O)c2ccccc2)C1=O (stereo unspecified) | 3.73 µM
Cc1cc(C(=O)N/N=C/c2cc(Br)cc([N+](=O)[O-])c2O)c2ccccc2n1 | 3.37 µM

SMILES | AC50
COc1cccc2c1C(=O)c1c(O)c3c(c(O)c1C2=O)C[C@@](O)(C(=O)CO)C[C@@H]3O[C@H]1C[C@H](N)[C@H](O)[C@H](C)O1 | 6.48 µM
Cc1[nH]n(-c2ccccc2)c(=O)c1/C=N/Nc1nncc(-c2ccccc2)n1 | 7.15 µM
O=[N+]([O-])c1ccc(S(=O)Cc2ccccc2)c([N+](=O)[O-])c1 (stereo unspecified) | 1.75 µM
O=C1c2ccccc2C(=O)c2c1oc(C(F)(F)F)c2C(=O)c1ccccc1 | 1 µM
O=C(Nc1ccc(C2=NCCN2)cc1)c1ccc(C(=O)Nc2ccc(C3=NCCN3)cc2)c(Cl)c1 | 4.17 µM
COc1cccc2c1C(=O)c1c(O)c3c(c(O)c1C2=O)CC(O)(C(C)=O)CC3OC1CC(N(C)C)C(O)C(C)O1 (stereo unspecified) | 1.41 µM
CC1(C(=O)OCC(=O)Nc2ccc3ccccc3c2)CC1(Cl)Cl (stereo unspecified) | 9.6 µM
CCCCNc1c(-c2cccc(Sc3ccc(OC)cc3)c2)nc2ccccn12 | 8.12 µM
c1ccc(-c2ccc(SCc3cccnc3)nn2)nc1 | > 12 µM (inactive)
O/N=C/c1cc(Br)ccc1OCc1cccc(F)c1 | 6.89 µM
O=C(CSc1nnc(-c2ccccc2O)n1Cc1ccccc1)NNC(=O)c1ccccc1O | 3.94 µM
Cc1cccc(N2CCN(C(=O)C3COc4ccccc4O3)CC2)c1C (stereo unspecified) | 6.72 µM
Cc1ccc2c(C)c3ccc4ccccc4c3c[n+]2c1 | 6 µM
O=C(Nc1ccc(Cl)cc1C(=O)Nc1ccc(Br)cn1)c1ccco1 | 3.64 µM
O=C1C(=C(I)I)c2ccccc2-c2ccccc21 | 5.61 µM
O=C(c1ccccc1)N1C(=O)C(c2ccccc2)Oc2ccccc21 (stereo unspecified) | 0.937 µM
O=S(=O)(CCSc1ccccn1)c1nc2ccccc2s1 | 7.49 µM
COc1ccc(/C=N/Nc2cc(C)nc(-n3nc(C)cc3C)n2)cc1 | 5.99 µM
CCC(C)n1ncn(-c2ccc(N3CCN(c4ccc(OCC5COC(Cn6cncn6)(c6ccc(Cl)cc6Cl)O5)cc4)CC3)cc2)c1=O (stereo unspecified) | 0.129 µM
CC(C)CNC(=O)COC(=O)c1ccc([N+](=O)[O-])cc1Cl | > 12 µM (inactive)
O=C1C(Nc2ccccc2)=C/C(=N/S(=O)(=O)c2cccs2)c2ccccc21 | 3.48 µM

SMILES | AC50
Cc1c(C2(O)CCCCC2)[nH]c2ccc(C(F)(F)F)cc12 | 7.22 µM
Fc1ccc(CCNC(=S)Nc2ccc(F)c(Cl)c2)cc1 | 7.64 µM
O=C(Oc1c(Cl)cc(Cl)c2cccnc12)c1cccs1 | 1.94 µM
C[n+]1c2cc(N)ccc2cc2ccc(N)cc21 | 1.82 µM and 1 µM
CC12CCC(O)CC1=CCC1C2CCC2(C)C3=NN=CC3CC12 (stereo unspecified) | 11.4 µM
Cc1oc2c(c1C(=O)c1ccccc1)C(=O)C(=O)c1ccccc1-2 | 5.65 µM
COc1ccc(-c2cc(C(=O)NNC(=S)NC(=O)c3c(-c4ccccc4)noc3C)[nH]n2)cc1 | 2.69 µM
CC(C)(C)n1nc(-c2ccc(F)cc2)c2c(N)ncnc21 | 1.47 µM
CC1=C(C)/C(=N\OS(=O)(=O)c2ccc(C)cc2)C=CC1=O | 5 µM
CN(c1ccccc1)c1nc(N2CCCC2)nc(-n2ccnc2)n1 | 1.04 µM
CCC(Oc1ccccc1)C(=O)Nc1ncc([N+](=O)[O-])s1 (stereo unspecified) | 6.83 µM
O=C(CSc1ccc(-c2ccccn2)nn1)N1CCCc2ccccc21 | 3.52 µM
O=C(CSc1ccc(-c2ccccn2)nn1)NCc1ccccc1 | 6.96 µM
CCc1ccc(C(C)NC(=S)NC2CCCCC2)cc1 (stereo unspecified) | 7.1 µM
COC(=O)c1ccc(N2C(=O)CC(N(C)CCc3ccc(OC)c(OC)c3)C2=O)cc1 (stereo unspecified) | 5.2 µM
CC(C)(c1cc(Br)c(O)c(Br)c1)c1cc(Br)c(O)c(Br)c1 | 8.13 µM
CC(C)(C)n1nc(Cc2cccc3ccccc23)c2c(N)ncnc21 | 5.46 µM
CCCCCCCn1c(=O)c(C(=O)OC)c(N)c2ccccc21 | 4.64 µM
CCOC(=O)c1ccc(N2C(=O)CC(N3CCC(O)(c4ccc(Cl)cc4)CC3)C2=O)cc1 (stereo unspecified) | 6.57 µM
COc1cc2c(c(OC)c1OC)-c1ccc(O)c(=O)cc1[C@@H](NC(C)=O)CC2 | 1.87 µM
O=C(NCCC1=CCCCC1)c1c(O)nc2sccn2c1=O | 3.82 µM

SMILES | AC50
CCOC(=O)c1cnc(-n2nc(C)cc2C)nc1NC1CCCC1 | 7.65 µM
O=c1c(/C=N/O)coc2ccc(Cl)cc12 | > 12 µM (inactive)
CCOc1ccc(-n2c(O)c(/C=N/NC(=O)C3COc4ccccc4O3)c3ccccc3c2=O)cc1 (stereo unspecified) | 4.11 µM
CCN(CC)c1ccc(/C=C/c2ccc3ccc(OC)cc3[n+]2CC)cc1 | 5.78 µM
COc1cccc(NC=C2C(=O)OC3(CCCCC3)OC2=O)c1 | 9.91 µM
Oc1ccc(/C=N/Nc2ccc(C(F)(F)F)cn2)c(O)c1 | 2.14 µM
COc1ccc2c(c1)OC[C@H]1[C@H]2N2C(=O)c3cc(C)ccc3NC(=O)[C@@]2(C)[C@H]1c1ccccc1 | 6.11 µM
Cc1cc(/C=C2\SC(=S)N(C)C2=O)c(C)n1-c1ccc(O)cc1 | 3.33 µM
O=C(c1ccccc1)c1coc2c1C(=O)c1ccccc1C2=O | 11.7 µM
Cc1ccc(NC2(c3nnnn3-c3c(C)cccc3C)CCCCC2)cc1 | 6.94 µM
O=C(NC1=CC(=O)c2ccccc2C1=O)c1ccccc1 | 7.77 µM
N/C(Cc1ccc(Cl)cc1Cl)=N\OC(=O)c1ccccc1F | 5.93 µM
FC(F)(F)c1cccc(N2CCc3cn[nH]c32)c1 | 0.446 µM
Clc1ccc(CSC(Cn2ccnc2)c2ccc(Cl)cc2Cl)cc1 (stereo unspecified) | 0.25 µM
Oc1c(I)cc(Cl)c2cccnc12 | 0.629 µM
O=c1c(Cl)c(Cl)cnn1Cc1nnc(-c2ccc(Cl)cc2)o1 | 7.45 µM
Cc1ccc(NC(=O)c2cc(N3C(=O)C=CC3=O)ccc2Cl)cc1C | 1.63 µM
CCOC(=O)c1cccc2c1-c1ccccc1/C2=N/O | 6.3 µM
